Measured values taken from the supplement of paper PMC10307832.

Key:
Assay in all cases: relative viability (nuclei count vs DMSO), 5 days (fraction); higher = more cells survive
Sorafenib + Palbociclib = compound: CNC(=O)c1cc(Oc2ccc(NC(=O)Nc3ccc(Cl)c(C(F)(F)F)c3)cc2)ccn1 [Sorafenib] + CC(=O)c1c(C)c2cnc(Nc3ccc(N4CCNCC4)cn3)nc2n(C2CCCC2)c1=O [Palbociclib] (partner 0.5 µM)
Summary of the method: (§1)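 A single step with final 0.05% Triton X-100, 1% formaldehyde and 1 ug/ml Hoechst fixed the cells and stained nuclei 5 days after treatment. Lung cancer cell lines in 1536-well plates had been treated by pin tool the day after seeding with one drug alone or a fixed anchor-drug dose plus five library-drug doses (not always all listed) in √10 steps, and nuclei were counted on 4× images. Relative viability is the ratio of nuclei in treated wells to nuclei in vehicle wells, taken as the median of duplicate plates.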

Sorafenib + Linsitinib = compound: CNC(=O)c1cc(Oc2ccc(NC(=O)Nc3ccc(Cl)c(C(F)(F)F)c3)cc2)ccn1 [Sorafenib] + C[C@]1(O)C[C@@H](c2nc(-c3ccc4ccc(-c5ccccc5)nc4c3)c3c(N)nccn32)C1 [Linsitinib] (partner 1 µM)
Summary of the method: as §1

Sorafenib + Crizotinib = compound: CNC(=O)c1cc(Oc2ccc(NC(=O)Nc3ccc(Cl)c(C(F)(F)F)c3)cc2)ccn1 [Sorafenib] + C[C@@H](Oc1cc(-c2cnn(C3CCNCC3)c2)cnc1N)c1c(Cl)ccc(F)c1Cl [Crizotinib] (partner 1 µM)
Summary of the method: as §1

Sorafenib + AZD7762 = compound: CNC(=O)c1cc(Oc2ccc(NC(=O)Nc3ccc(Cl)c(C(F)(F)F)c3)cc2)ccn1 [Sorafenib] + NC(=O)Nc1cc(-c2cccc(F)c2)sc1C(=O)N[C@H]1CCCNC1 [AZD7762] (partner 0.2 µM)
Summary of the method: as §1

Sorafenib + Pemetrexed = compound: CNC(=O)c1cc(Oc2ccc(NC(=O)Nc3ccc(Cl)c(C(F)(F)F)c3)cc2)ccn1 [Sorafenib] + Nc1nc2[nH]cc(CCc3ccc(C(=O)N[C@@H](CCC(=O)O)C(=O)O)cc3)c2c(=O)[nH]1 [Pemetrexed] (partner 0.2 µM)
Summary of the method: as §1

Row | Cell Line | relative viability (Sorafenib + Palbociclib; first compound 0.08 µM) | relative viability (Sorafenib + Palbociclib; first compound 0.253 µM) | relative viability (Sorafenib + Palbociclib; first compound 2.53 µM) | relative viability (Sorafenib + Palbociclib; first compound 8 µM) | relative viability (Sorafenib + Linsitinib; first compound 0.08 µM) | relative viability (Sorafenib + Linsitinib; first compound 0.253 µM) | relative viability (Sorafenib + Linsitinib; first compound 2.53 µM) | relative viability (Sorafenib + Linsitinib; first compound 8 µM) | relative viability (Sorafenib + Crizotinib; first compound 0.08 µM) | relative viability (Sorafenib + Crizotinib; first compound 0.253 µM) | relative viability (Sorafenib + Crizotinib; first compound 2.53 µM) | relative viability (Sorafenib + Crizotinib; first compound 8 µM) | relative viability (Sorafenib + AZD7762; first compound 0.08 µM) | relative viability (Sorafenib + AZD7762; first compound 0.253 µM) | relative viability (Sorafenib + AZD7762; first compound 2.53 µM) | relative viability (Sorafenib + AZD7762; first compound 8 µM) | relative viability (Sorafenib + Pemetrexed; first compound 0.08 µM) | relative viability (Sorafenib + Pemetrexed; first compound 0.253 µM) | relative viability (Sorafenib + Pemetrexed; first compound 2.53 µM) | relative viability (Sorafenib + Pemetrexed; first compound 8 µM)
1 | NCI-H2087 | 0.245 | 0.209 | 0.15 | 0.159 | 0.756 | 0.853 | 0.956 | 0.275 | 0.83 | 0.746 | 0.784 | 0.308 | 1.39 | 1.08 | 1.02 | 0.264 | 0.694 | 0.622 | 0.61 | 0.239
2 | NCI-H2126 | 0.354 | 0.375 | 0.411 | 0.399 | 0.754 | 0.706 | 0.745 | – | 0.998 | 0.984 | 1.09 | 0.962 | 1.01 | 1.01 | 1.07 | 0.982 | 0.763 | 0.672 | 0.681 | 0.706
3 | NCI-H2347 | 0.432 | 0.464 | 0.434 | 0.43 | – | 0.921 | 0.973 | 0.999 | 0.796 | 0.559 | 0.491 | 0.525 | 0.784 | 0.664 | 0.636 | 0.47 | 0.442 | 0.398 | 0.425 | 0.413
4 | NCI-H2405 | 0.553 | 0.517 | 0.561 | 0.477 | 1.1 | 0.907 | 0.715 | 0.502 | 0.884 | 0.767 | – | 0.76 | 0.819 | 0.597 | 0.681 | 0.63 | 1.12 | 0.902 | 1.13 | 0.982
